# Measured values published in publication PMC8205226, “HIV-1 Integrase Inhibitors with Modifications That Affect Their Potencies against Drug Resistant Integrase Mutants” (ACS Infectious Diseases, 2021).
# Where two headings read alike, the source gives them in different places.
# How the values were obtained:
# [1] = system: HIV-1 IN mutant Y143R; assay: single-round infectivity assay, Y143R IN mutant; format: cell-based
# Protocol: (§1) Figure 2 Antiviral activities of the new compounds against RAL-resistant mutants. The EC50 values were determined using a vector that carries WT HIV-1 IN and the RAL-resistant mutants in a single round infection assay. […] Error bars represent the standard deviations of independent experiments, n = 4, performed in triplicate. The graph has a maximum value of 550 nM.
# (§2) WT and mutant HIV-1 viral vectors were used in single-round infectivity assays to determine the antiviral potencies (EC50 values) of the compounds and the effects of the mutants on the EC50 values as previously described.[30],[54] Single round infectivity measurements were determined as done previously.[38]
# (§3) The vector pNLNgoMIVR-ΔENV.LUC has been described previously.[26] To produce the new IN mutants used in this study, the IN open reading frame was removed from pNLNgoMIVR-ΔENV.LUC by digestion with KpnI and SalI, and the resulting fragment was inserted between the KpnI and SalI sites of pBluescript KS+. Using that construct as the wild-type template, we prepared the following HIV-1 IN mutants using the QuikChange II XL site directed mutagenesis kit (Agilent Technologies, Santa Clara, CA) protocol: N117A, N117H, P142A, P142H, P142S, Y143C, Y143H, S230R, R231G, and R231K. The following sense oligonucleotides were used with matching cognate antisense oligonucleotides (not shown) (Integrated DNA Technologies, Coralville, IA) in the mutagenesis: N117A, 5′-[…]-3′; N117H, 5′-[…]-3′; P142A, 5′-[…]-3′; P142H, 5′-[…]-3′; P142S, 5′-[…]-3′; Y143C, 5′- […]-3′; Y143H, 5′-[…]-3′; S230R, 5′- […]-3′; R231G, 5′-[…]-3′; R231K, 5′-[…]-3′.
# [2] = system: HIV-1 IN mutant N155H; assay: single-round infectivity assay, N155H IN mutant; format: cell-based
# Protocol: as §1, §2, §3
# [3] = system: HIV-1 IN double mutant G140S/Q148H; assay: single-round infectivity assay, G140S/Q148H IN double mutant; format: cell-based
# Protocol: as §1, §2, §3
# [4] = system: HIV-1 IN mutant N117A; assay: single-round infectivity assay, N117A IN mutant; format: cell-based
# Protocol: (§4) The EC50 values were determined using a vector that carries the IN mutant in a single round infection assay. […] Error bars represent the standard deviations of independent experiments, n = 4, performed in triplicate.
# as §2, §3
# [5] = system: HIV-1 IN mutant N117H; assay: single-round infectivity assay, N117H IN mutant; format: cell-based
# Protocol: as §4, §2, §3
# [6] = system: HIV-1 IN mutant G118R; assay: single-round infectivity assay, G118R IN mutant; format: cell-based
# Protocol: as §4, §2, §3
# [7] = system: HIV-1 IN mutant S119R; assay: single-round infectivity assay, S119R IN mutant; format: cell-based
# Protocol: as §4, §2, §3
# [8] = system: HIV-1 IN mutant Y143C; assay: single-round infectivity assay, Y143C IN mutant; format: cell-based
# Protocol: as §4, with “Figure 4 Mutations in the β5-α3 loop affect the antiviral potencies of the new compounds. The” for “The”
# as §2, §3
# [9] = system: HIV-1 IN mutant Y143H; assay: single-round infectivity assay, Y143H IN mutant; format: cell-based
# Protocol: as §4, with “Figure 4 Mutations in the β5-α3 loop affect the antiviral potencies of the new compounds. The” for “The”
# as §2, §3
# [10] = system: HIV-1 IN mutant P142A; assay: single-round infectivity assay, P142A IN mutant; format: cell-based
# Protocol: as §4, with “Figure 4 Mutations in the β5-α3 loop affect the antiviral potencies of the new compounds. The” for “The”
# as §2, §3
# [11] = system: HIV-1 IN mutant P142H; assay: single-round infectivity assay, P142H IN mutant; format: cell-based
# Protocol: as §4
# Single round infectivity measurements were determined as done previously.[38]
# as §3
# [12] = system: HIV-1 IN mutant P142S; assay: single-round infectivity assay, P142S IN mutant; format: cell-based
# Protocol: as §4, with “Figure 4 Mutations in the β5-α3 loop affect the antiviral potencies of the new compounds. The” for “The”
# as §2, §3
# [13] = system: HIV-1 IN mutant S230R; assay: single-round infectivity assay, S230R IN mutant; format: cell-based
# Protocol: as §4, with “Figure 5 Antiviral potencies of the new compounds against IN with mutations in the […]. The” for “The”
# as §2, §3
# [14] = system: HIV-1 IN mutant R231G; assay: single-round infectivity assay, R231G IN mutant; format: cell-based
# Protocol: as §4, with “Figure 5 Antiviral potencies of the new compounds against IN with mutations in the […]. The” for “The”
# as §2, §3
# [15] = system: HIV-1 IN mutant R231K; assay: single-round infectivity assay, R231K IN mutant; format: cell-based; details: EC50 compound / EC50 DTG
# Protocol: as §4, with “Figure 5 Antiviral potencies of the new compounds against IN with mutations in the […]. The” for “The”
# as §2, §3
# [16] = system: WT HIV-1; details: vector carrying WT HIV-1 IN, single round infection; previously reported; cited from earlier work
# [17] = system: HIV-1 IN mutant Y143R; details: single round infection; previously reported; cited from earlier work
# [18] = system: HIV-1 IN mutant N155H; details: single round infection; previously reported; cited from earlier work
# [19] = system: HIV-1 IN double mutant G140S/Q148H; details: single round infection; previously reported; cited from earlier work
# [20] = system: HIV-1 IN mutant G118R; details: single round infection; previously shown; cited from earlier work
# [21] = fold change in EC50, IN mutant versus WT HIV-1
smiles,measurement,setting,value
Nc1c(C(=O)NCc2ccc(F)cc2F)c(=O)n(O)c2ncc(CCCCCCO)cc12 [4d],ratio of the EC50s (our compound relative to DTG) against Y143R,[1]; EC50 compound / EC50 DTG,0.5
same,FC Y143R,[1]; [21],0.9
same,ratio of the EC50s (our compound relative to DTG) against N155H,[2]; EC50 compound / EC50 DTG,0.8
same,FC N155H,[2]; [21],1.2
same,ratio of the EC50s (our compound relative to DTG) against G140S/Q148H,[3]; EC50 compound / EC50 DTG,1.6
same,FC G140S/Q148H,[3]; [21],4.1
same,ratio of the EC50s (our compound relative to DTG) against N117A,[4]; EC50 compound / EC50 DTG,1.2
same,EC50,"[4]; Human immunodeficiency virus 1, read-out: EC50 values N117A",0.6 nM
same,FC N117A,[4]; [21],0.3
same,ratio of the EC50s (our compound relative to DTG) against N117H,[5]; EC50 compound / EC50 DTG,1.3
same,EC50,"[5]; Human immunodeficiency virus 1, read-out: EC50 values N117H",3 nM
same,FC N117H,[5]; [21],1.3
same,ratio of the EC50s (our compound relative to DTG) against G118R,[6]; EC50 compound / EC50 DTG,0.5
same,FC G118R,[6]; [21],2.8
same,ratio of the EC50s (our compound relative to DTG) against S119R,[7]; EC50 compound / EC50 DTG,0.9
same,EC50,"[7]; Human immunodeficiency virus 1, read-out: EC50 values S119R",2.1 ± 0.1 nM
same,FC S119R,[7]; [21],0.9
same,ratio of the EC50s (our compound relative to DTG) against Y143C,[8]; EC50 compound / EC50 DTG,0.9
same,FC Y143C,[8]; [21],0.5
same,ratio of the EC50s (our compound relative to DTG) against Y143H,[9]; EC50 compound / EC50 DTG,0.8
same,EC50,"[9]; Human immunodeficiency virus 1, read-out: EC50 values Y143H, single round infection, n = 4",1.5 ± 0.1 nM
same,FC Y143H,[9]; [21],0.7
same,EC50,"[9]; read-out: EC50 values Y143H, single round infection, n = 4",< 3 nM
same,ratio of the EC50s (our compound relative to DTG) against P142A,[10]; EC50 compound / EC50 DTG,0.8
same,EC50,"[10]; Human immunodeficiency virus 1, read-out: EC50 values P142A",2.1 ± 0.3 nM
same,FC P142A,[10]; [21],0.9
same,ratio of the EC50s (our compound relative to DTG) against P142H,[11]; EC50 compound / EC50 DTG,0.5
same,EC50,"[11]; Human immunodeficiency virus 1, read-out: EC50 values P142H",1.5 ± 0.1 nM
same,FC P142H,[11]; [21],0.7
same,ratio of the EC50s (our compound relative to DTG) against P142S,[12]; EC50 compound / EC50 DTG,0.5
same,EC50,"[12]; Human immunodeficiency virus 1, read-out: EC50 values P142S",1.2 ± 0.2 nM
same,FC P142S,[12]; [21],0.5
same,ratio of the EC50s (our compound relative to DTG) against S230R,[13]; EC50 compound / EC50 DTG,0.8
same,EC50,"[13]; Human immunodeficiency virus 1, read-out: EC50 values S230R",3.8 ± 0.3 nM
same,FC S230R,[13]; [21],1.7
same,ratio of the EC50s (our compound relative to DTG) against R231G,[14]; EC50 compound / EC50 DTG,0.9
same,EC50,"[14]; Human immunodeficiency virus 1, read-out: EC50 values R231G",1.3 ± 0.2 nM
same,FC R231G,[14]; [21],0.6
same,ratio of the EC50s (our compound relative to DTG) against R231K,[15],0.6
same,EC50,[16],2.3 ± 0.6 nM
same,EC50,[17],2.1 ± 1.4 nM
same,EC50,[18],2.7 ± 1 nM
same,EC50,[19],9.4 ± 3.6 nM
same,EC50,[20],6.4 ± 2.5 nM
